Data set [1] relates to HeLa. Description: Induction of cell cycle arrest in human HeLa cells assessed as < 2N cells at 6 nM measured after 24 hrs by propidium iodide staining based flow cytometric analysis analysis ( Rvb = 9.32%). It counts as functional.
For data set [2], the system named is HeLa. Description: Induction of cell cycle arrest in human HeLa cells assessed as S-phase at 3 nM measured after 24 hrs by propidium iodide staining based flow cytometric analysis analysis ( Rvb = 23.4%). It counts as functional. (In general: In flow cytometry, cells or beads pass a laser one at a time.)
For data set [3], the system named is HeLa. Description: Induction of apoptosis in human HeLa cells assessed as viable cells at 6 nM measured after 24 hrs by Annexin V-FITC/7-AAD staining based flow cytometric analysis (reference value: 75.5%). It counts as functional. Conditions: read-out: Activity.
Data set [4] relates to HeLa. Description: Induction of apoptosis in human HeLa cells assessed as early apoptotic cells at 6 nM measured after 24 hrs by Annexin V-FITC/7-AAD staining based flow cytometric analysis (reference value: 18.8%). The data set is classed as functional.
Data set [5] concerns HeLa. Nature of the data set: Induction of apoptosis in human HeLa cells assessed as late apoptotic cells at 3 nM measured after 24 hrs by Annexin V-FITC/7-AAD staining based flow cytometric analysis (reference value: 5.22%). It counts as functional.
For data set [6], the system named is HeLa. Description: Induction of apoptosis in human HeLa cells assessed as necrotic cells at 3 nM measured after 24 hrs by Annexin V-FITC/7-AAD staining based flow cytometric analysis (reference value: 0.45%). It counts as functional.
For data set [7], the target named is T1, Tubulin beta (Homo sapiens) (UniProt P68371+Q9H4B7+Q13509+P04350+Q3ZCM7+P07437+Q13885+Q9BVA1+Q9BUF5+A6NNZ2). Nature of the data set: Binding affinity to beta-tubulin colchicine binding site in human HeLa cells assessed as decrease of adduct formation by measuring gray value measured at 25 uM incubated for 2 hrs followed by addition of EBI measured after 1.5 hrs by EBI competition based Western blotting analysis. It counts as cell-based. Conditions: time 3.5 hrs. (Immunoblotting shows a protein as a band on a membrane.)

Data set [8] has as its target T1, Tubulin beta (Homo sapiens). Nature of the data set: Binding affinity to beta-tubulin colchicine binding site in human HeLa cells assessed as inhibition of EBI-beta-tubulin adduct formation measured at 1 to 100 uM incubated for 2 hrs followed by addition of EBI measured after 1.5 hrs by EBI competition based Western blotting analysis. The settings on record: dose 1-100 µM, time 3.5 hrs, DDE = dose-dependent effect. It counts as cell-based.

A further data set concerns the target Tubulin (Sus scrofa) (UniProt P02554+P02550). Description: Inhibition of pig brain tubulin polymerization at 12.5 uM by spectrophotometer analysis relative to control. More on the design: scale not given: the % may be the effect or the level left. The settings on record: Sus scrofa domesticus.
For the next data set, the target named is Tubulin (Homo sapiens) (UniProt P68371+Q9H4B7+P0DPH7+P68366+Q13509+Q71U36+P04350+Q3ZCM7+P07437+P68363+Q9BQE3+Q6PEY2+Q13885+Q9BVA1+Q9BUF5). Description: Induction of microtubule disruption in human HeLa cells assessed as loss of cellular structure at 0.1 to 0.2 uM measured after 24 hrs by DAPI staining based laser scanning confocal microscopic analysis. The data set is classed as cell-based. Conditions: dose 0.1-0.2 µM, DDE = dose-dependent effect.

Data set [9] concerns HeLa. Description: Induction of cell cycle arrest in human HeLa cells assessed as 4N cells at 0.1 uM measured after 24 hrs by propidium iodide staining based flow cytometric analysis analysis ( Rvb = 20.3%). It counts as functional.
The subject of data set [10] is HeLa. Nature of the data set: Induction of cell cycle arrest in human HeLa cells assessed as 4N cells at 0.4 uM measured after 24 hrs by propidium iodide staining based flow cytometric analysis analysis ( Rvb = 20.3%). The data set is classed as functional.
In data set [11] the test system is HeLa. Nature of the data set: Induction of cell cycle arrest in human HeLa cells assessed as >4N cells at 0.4 uM measured after 24 hrs by propidium iodide staining based flow cytometric analysis analysis ( Rvb = 8.84%). The data set is classed as functional.
For data set [12], the system named is HeLa. Nature of the data set: Induction of apoptosis in human HeLa cells assessed as viable cells at 0.1 uM measured after 24 hrs by Annexin V-FITC/7-AAD staining based flow cytometric analysis (reference value: 70.1%). It counts as functional. Conditions: read-out: Activity.
Data set [13] has as its system HeLa. Nature of the data set: Induction of apoptosis in human HeLa cells assessed as necrotic cells at 0.4 uM measured after 24 hrs by Annexin V-FITC/7-AAD staining based flow cytometric analysis (reference value: 0.56%). It counts as functional.
Data set [14] can be described thus: Tmax in C57 nude mouse at 30 mg/kg, ip measured at 0.083 to 24 hrs by LC/MS/MS analysis. It counts as ADME, organism-based. The settings on record: in vivo, time 0.083-24 hrs.
Data set [15] in a line: AUC(0 to t) in C57 nude mouse at 30 mg/kg, ip measured at 0.083 to 24 hrs by LC/MS/MS analysis. The data set is classed as ADME, organism-based. More on the design: dose 30 mg/kg, time upper 24 hrs, time lower 0.083 hrs, route ip. The settings on record: in vivo.
Data set [16] is described as follows: AUC(0 to infinity) in C57 nude mouse plasma at 30 mg/kg, ip measured at 0.083 to 24 hrs by LC/MS/MS analysis. It counts as ADME, organism-based. Set-up: time lower 0.083 hrs, dose 30 mg/kg, time upper 24 hrs, route ip.
Data set [17] in a line: Apparent volume of distribution during terminal phase in C57 nude mouse at 30 mg/kg, ip measured at 0.083 to 24 hrs by LC/MS/MS analysis. The data set is classed as ADME, organism-based. The settings on record: in vivo, time 0.083-24 hrs, read-out: Vz/F.
Data set [18] in a line: Acute toxicity in ICR male mouse assessed as body weight gain at 100 to 1000 mg/kg, ip measured daily for 14 days. Conditions: in vivo, 336 h, dose 100-1000 mg/kg, time 14 day. The data set is classed as organism-based.
Data set [19] is described as follows: Acute toxicity against ICR mouse assessed as morphological changes in heart at 1000 mg/kg, ip measured after 14 days by H and E staining method. It counts as organism-based. The settings on record: in vivo, 336 h, time 14 day.
The nature of data set [20]: Acute toxicity against ICR mouse assessed as focal necrosis in liver at 1000 mg/kg, ip measured after 14 days by H and E staining method. The data set is classed as organism-based. Conditions: in vivo, 336 h, time 14 day.
The nature of data set [21]: Acute toxicity against ICR mouse assessed as inflammatory cell infiltration in kidney at 1000 mg/kg, ip measured after 14 days by H and E staining method. It counts as organism-based. Conditions: in vivo, 336 h, time 14 day.
The subject of data set [22] is HeLa. Description: Antitumor activity against human HeLa cells xenografted in BABL/c mouse assessed assessed as reduction in tumor volume at 30 mg/kg, ip administered daily for 21 days followed by addition of 3 mg/kg DDP for every 2 days and measured every 3 days ( Rvb = 2336 mm3). It counts as functional. Conditions: time 21 day. Background: Xenograft models place foreign cells or tissue in a host animal.

Data set [23] can be described thus: Toxicity in BABL/c mouse xenografted with human HeLa cells assessed as body weight gain at 30 mg/kg, ip administered daily for 21 days followed by addition of 3 mg/kg DDP for every 2 days and measured every 3 days. The data set is classed as organism-based. The settings on record: in vivo, 504 h, time 21 day.
Data set [24] is described as follows: Nephrotoxicity in BABL/c mouse assessed as increased uric acid level at 60 mg/kg, ip administered daily for 21 days relative to vehicle. The settings on record: in vivo, 504 h, time 21 day. It counts as toxicity, organism-based.
Data set [25] in a line: Toxicity against BABL/c mouse assessed as morphological changes in liver at 30 to 60 mg/kg, ip administered daily for 21 days by H and E staining method. It counts as organism-based. The settings on record: in vivo, 504 h, dose 30-60 mg/kg, time 21 day.
The nature of data set [26]: Toxicity against BABL/c mouse assessed as morphological changes in lung at 30 to 60 mg/kg, ip administered daily for 21 days by H and E staining method. The settings on record: in vivo, 504 h, dose 30-60 mg/kg, time 21 day. The data set is classed as organism-based.
Data set [27] deals with T1, Tubulin beta (Homo sapiens). Nature of the data set: Binding affinity to beta-tubulin colchicine binding site in human HeLa cells assessed as decrease of adduct formation by measuring gray value measured at 100 uM incubated for 2 hrs followed by addition of EBI measured after 1.5 hrs by EBI competition based Western blotting analysis. It counts as cell-based. Conditions: time 3.5 hrs.

Chain of Tubulin (Sus scrofa) (P02550 whole entry, looked up): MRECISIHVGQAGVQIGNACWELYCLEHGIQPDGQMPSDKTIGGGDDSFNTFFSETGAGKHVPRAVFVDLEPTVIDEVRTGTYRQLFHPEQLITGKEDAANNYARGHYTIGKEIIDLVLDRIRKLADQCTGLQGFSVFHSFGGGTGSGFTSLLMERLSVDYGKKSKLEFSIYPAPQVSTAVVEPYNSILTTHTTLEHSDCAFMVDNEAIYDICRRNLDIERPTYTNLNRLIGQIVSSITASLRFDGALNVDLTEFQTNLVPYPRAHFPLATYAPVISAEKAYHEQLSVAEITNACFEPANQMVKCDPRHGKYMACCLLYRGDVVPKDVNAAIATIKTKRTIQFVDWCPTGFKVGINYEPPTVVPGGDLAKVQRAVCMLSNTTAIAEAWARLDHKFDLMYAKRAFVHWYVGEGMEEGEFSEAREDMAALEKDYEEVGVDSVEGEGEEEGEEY
Chain of Tubulin (Sus scrofa) (P02554 whole entry, looked up): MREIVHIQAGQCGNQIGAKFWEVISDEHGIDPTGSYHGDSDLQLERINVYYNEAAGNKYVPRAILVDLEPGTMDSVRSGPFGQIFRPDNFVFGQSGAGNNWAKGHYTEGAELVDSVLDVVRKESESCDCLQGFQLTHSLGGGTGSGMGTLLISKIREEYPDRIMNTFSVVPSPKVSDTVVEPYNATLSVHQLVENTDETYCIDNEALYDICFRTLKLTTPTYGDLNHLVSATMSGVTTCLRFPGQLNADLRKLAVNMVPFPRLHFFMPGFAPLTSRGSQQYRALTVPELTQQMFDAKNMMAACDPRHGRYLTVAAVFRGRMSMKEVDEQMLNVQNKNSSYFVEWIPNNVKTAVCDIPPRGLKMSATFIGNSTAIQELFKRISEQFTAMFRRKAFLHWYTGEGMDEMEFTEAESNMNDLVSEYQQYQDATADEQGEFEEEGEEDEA

Turning to `COc1ccc(/C=C\c2cc(OC)c(OC)c(OC)c2)cc1O` [COMBRETASTATIN A4], the Activity in the data set on HeLa [1] came out at 16.5%; in the data set with HeLa [2], 12.1%; in the data set on HeLa [4] it was 74.2%; in the data set on HeLa [5] it was 10.8%; in the data set on HeLa [6], 0.64%. In addition, in the data set with HeLa [3], the viability at 0.006 µM stood at 19.2%.
For `CCOc1ccc(-c2cncnc2-c2cc(OC)c(OC)c(OC)c2)cc1Cl`, the Activity in data set [7] was 1.17; in data set [8] it was “Dde”; at Tubulin (Sus scrofa), 77%; at Tubulin (Homo sapiens) it was “Dde”; with HeLa [9], 24.7%; in the data set on HeLa [10], 71.7%. Further, the Activity in the data set on HeLa [11] is listed as 1.58%; in the data set with HeLa [13], 0.11%; in data set [18], 8.1 g; in data set [19] it was “Non-Toxic”; in data set [20] it was “Non-Toxic”; in [21] it was “Non-Toxic”. Also, the Activity with HeLa [22] was 724 mm3; in [23], “Non-Toxic”; in data set [24] it was 36%; in [25], “Non-Toxic”; in data set [26], “Non-Toxic”; in data set [27], 2. The viability at 0.1 µM in the data set with HeLa [12] was found to be 56.3%. In addition, the Tmax (usually the time at which the peak concentration occurs) in data set [14] came to 15 min. The AUC(0-t) (in general, the area under the concentration-time curve up to a stated or last time point) in [15] came out at 5610 ng·h/mL. The AUC(0-inf) – broadly, total exposure, with the tail of the curve extrapolated – in data set [16] turned out to be 5940 ng·h/mL. Also, the Vd/F in [17] was determined as 11.3 L/kg.

The values above are taken from ChEMBL document CHEMBL5154820 (Eur J Med Chem, 2022).
